From doi:10.64898/2025.12.30.696991 (bioRxiv, 2026)

Legend:
Experiment in all cases: Antibiotic disc inhibition zone on Mueller-Hinton agar
Settings in all cases: experiment performed twice
E. coli (TOP10) = assay type: cell-based, Escherichia coli
Protocol: (§1) Susceptible (ATCC 700720) and MDR (ATCC 700408) strains of S. enterica serovar Typhimurium were obtained from American Type Culture Collection (ATCC Manassas, VA) and cultured in nutrient broth (BD Difco, Detroit, MA). Murine macrophage cell line RAW 264.7 (ATCC TIB-71) was maintained in Dulbecco's modified Eagle's medium (DMEM) (GIBCO, Invitrogen, Carlsbad, CA) supplemented with 10% fetal bovine serum (FBS) (GIBCO) and 1% penicillin-streptomycin (P/S) (GIBCO). Cells were cultured at 37°C in a 5% CO2 atmosphere and used up to passage 10 once received from ATCC. Susceptible and MDR activity of S. Typhimurium was confirmed on Mueller-Hinton agar (BD Difco, Detroit, MA) plates with antibiotic discs (Thermo Fisher Scientific, Waltham, MA) and compared to Escherichia coli (TOP10) and S. Typhimurium XEN-33 (Table 3).

[1] = test system: Susc. S. Typhimurium (ATCC700720); assay type: cell-based, Salmonella enterica serovar Typhimurium
Protocol: as §1, with “ATCC.” for “ATCC. Susceptible and MDR activity of S. Typhimurium was confirmed on Mueller-Hinton agar (BD Difco, Detroit, MA) plates with antibiotic discs (Thermo Fisher Scientific, Waltham, MA) and compared to Escherichia coli (TOP10) and S. Typhimurium XEN-33 (Table 3).”

[2] = test system: MDR S. Typhimurium (ATCC700408); assay type: cell-based, Salmonella enterica serovar Typhimurium
Protocol: as §1, with “ATCC.” for “ATCC. Susceptible and MDR activity of S. Typhimurium was confirmed on Mueller-Hinton agar (BD Difco, Detroit, MA) plates with antibiotic discs (Thermo Fisher Scientific, Waltham, MA) and compared to Escherichia coli (TOP10) and S. Typhimurium XEN-33 (Table 3).”

S. Typhimurium (XEN-33) = assay type: cell-based, Salmonella enterica serovar Typhimurium

Compound: CC1(C)S[C@@H]2[C@H](NC(=O)[C@H](N)c3ccccc3)C(=O)N2[C@H]1C(=O)O [Ampicillin]
- Disc inhibition zone (diameter) (E. coli (TOP10)): 17 mm
- Disc inhibition zone (diameter) [1]: 19 mm
- Disc inhibition zone (diameter) [2]: 0 mm
- Disc inhibition zone (diameter) (S. Typhimurium (XEN-33)): 18 mm

Compound: CO/N=C(\C(=O)N[C@@H]1C(=O)N2C(C(=O)O)=C(CSc3nc(=O)c(O)nn3C)CS[C@H]12)c1csc(N)n1 [Ceftriaxo]
- Disc inhibition zone (diameter) (E. coli (TOP10)): 30 mm
- Disc inhibition zone (diameter) [1]: 26 mm
- Disc inhibition zone (diameter) [2]: 28 mm
- Disc inhibition zone (diameter) (S. Typhimurium (XEN-33)): 26 mm

Compound: O=C(N[C@H](CO)[C@H](O)c1ccc([N+](=O)[O-])cc1)C(Cl)Cl [Chloramphenicol]
- Disc inhibition zone (diameter) (E. coli (TOP10)): 28 mm
- Disc inhibition zone (diameter) [1]: 24 mm
- Disc inhibition zone (diameter) [2]: 0 mm
- Disc inhibition zone (diameter) (S. Typhimurium (XEN-33)): 24 mm

Compound: O=C(O)c1cn(C2CC2)c2cc(N3CCNCC3)c(F)cc2c1=O [Ciprofloxacin]
- Disc inhibition zone (diameter) (E. coli (TOP10)): 37 mm
- Disc inhibition zone (diameter) [1]: 30 mm
- Disc inhibition zone (diameter) [2]: 30 mm
- Disc inhibition zone (diameter) (S. Typhimurium (XEN-33)): 25 mm

Compound: CNC(C)C1CCC(N)C(OC2C(N)CC(N)C(OC3OCC(C)(O)C(NC)C3O)C2O)O1 (centres unmarked) [Gentamicin]
- Disc inhibition zone (diameter) (E. coli (TOP10)): 17 mm
- Disc inhibition zone (diameter) [1]: 17 mm
- Disc inhibition zone (diameter) [2]: 18 mm
- Disc inhibition zone (diameter) (S. Typhimurium (XEN-33)): 18 mm

Compound: NC[C@H]1O[C@H](O[C@H]2[C@H](O)[C@@H](O[C@H]3O[C@H](CO)[C@@H](O)[C@H](N)[C@H]3O)[C@H](N)C[C@@H]2N)[C@H](O)[C@@H](O)[C@@H]1O [Kanamycin]
- Disc inhibition zone (diameter) (E. coli (TOP10)): 20 mm
- Disc inhibition zone (diameter) [1]: 17 mm
- Disc inhibition zone (diameter) [2]: 17 mm
- Disc inhibition zone (diameter) (S. Typhimurium (XEN-33)): 0 mm

Compound: C[C@H]1COc2c(N3CCN(C)CC3)c(F)cc3c(=O)c(C(=O)O)cn1c23 [Levofloxacin]
- Disc inhibition zone (diameter) (E. coli (TOP10)): 34 mm
- Disc inhibition zone (diameter) [1]: 32 mm
- Disc inhibition zone (diameter) [2]: 32 mm
- Disc inhibition zone (diameter) (S. Typhimurium (XEN-33)): 27 mm

Compound: CCn1cc(C(=O)O)c(=O)c2ccc(C)nc21 [Nalidixic Acid]
- Disc inhibition zone (diameter) (E. coli (TOP10)): 30 mm
- Disc inhibition zone (diameter) [1]: 21 mm
- Disc inhibition zone (diameter) [2]: 21 mm
- Disc inhibition zone (diameter) (S. Typhimurium (XEN-33)): 20 mm

Compound: [H]/N=C(/N)N[C@H]1[C@H](O)[C@@H](O)[C@H](O[C@@H]2O[C@@H](C)[C@](O)(C=O)[C@H]2O[C@@H]2O[C@@H](CO)[C@H](O)[C@@H](O)[C@@H]2NC)[C@@H](N/C(N)=N\[H])[C@@H]1O [Streptomycin]
- Disc inhibition zone (diameter) (E. coli (TOP10)): 0 mm
- Disc inhibition zone (diameter) [1]: 12 mm
- Disc inhibition zone (diameter) [2]: 0 mm
- Disc inhibition zone (diameter) (S. Typhimurium (XEN-33)): 13 mm

Compound: CN(C)[C@@H]1C(O)=C(C(N)=O)C(=O)[C@@]2(O)C(O)=C3C(=O)c4c(O)cccc4[C@@](C)(O)[C@H]3C[C@@H]12 [Tetracycline]
- Disc inhibition zone (diameter) (E. coli (TOP10)): 24 mm
- Disc inhibition zone (diameter) [1]: 22 mm
- Disc inhibition zone (diameter) [2]: 13 mm
- Disc inhibition zone (diameter) (S. Typhimurium (XEN-33)): 0 mm

Compound: Cotrimoxazole
- Disc inhibition zone (diameter) (E. coli (TOP10)): 29 mm
- Disc inhibition zone (diameter) [1]: 25 mm
- Disc inhibition zone (diameter) [2]: 24 mm
- Disc inhibition zone (diameter) (S. Typhimurium (XEN-33)): 0 mm
